Results as given in BindingDB's records for doi:10.1021/cb700166z (Albert Einstein College of Medicine, 2007).
pKd: −log10 of the molar value. “And” between values parts separate entries of the source, which are not always exact repeats. Equal entries are not always repeated.

How the values were obtained:
Assay in all cases: Enzyme Activity Assay
Conditions in all cases: pH 7.5; 25 °C
[1] = molecular target: 5'-methylthioadenosine/S-adenosylhomocysteine nucleosidase (Escherichia coli (strain K12), UniProt P0AF12)
From the text: (§1) Enzyme activity assay using various bacterial species of 5'-Methylthioadenosine nucleosidases (MTANs) excepted for MTAP, for human MTAP.

[2] = molecular target: T1, 5'-methylthioadenosine/S-adenosylhomocysteine nucleosidase (Staphylococcus aureus (strain COL), UniProt Q5HFG2)
T1 sequence (Q5HFG2 whole entry): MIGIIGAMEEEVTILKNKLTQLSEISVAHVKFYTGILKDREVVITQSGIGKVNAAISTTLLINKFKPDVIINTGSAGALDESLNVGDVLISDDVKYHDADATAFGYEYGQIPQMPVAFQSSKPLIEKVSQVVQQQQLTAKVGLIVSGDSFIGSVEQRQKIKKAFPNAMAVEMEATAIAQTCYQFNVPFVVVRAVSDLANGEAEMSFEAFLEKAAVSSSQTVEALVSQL
From the text: as §1

[3] = molecular target: T2, Adenosylhomocysteine nucleosidase (Streptococcus pneumoniae (strain ATCC BAA-255 / R6), UniProt Q8DQ16)
T2 sequence (Q8DQ16 whole entry): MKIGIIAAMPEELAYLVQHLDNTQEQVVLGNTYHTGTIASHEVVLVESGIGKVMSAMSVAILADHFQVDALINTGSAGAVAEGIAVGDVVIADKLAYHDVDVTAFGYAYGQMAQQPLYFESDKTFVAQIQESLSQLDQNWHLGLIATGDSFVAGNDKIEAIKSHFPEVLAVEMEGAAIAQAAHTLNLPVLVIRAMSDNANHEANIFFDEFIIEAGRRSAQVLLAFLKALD
From the text: as §1

[4] = molecular target: T3, S-methyl-5'-thioadenosine phosphorylase (Homo sapiens, UniProt Q13126)
T3 sequence (Q13126 whole entry): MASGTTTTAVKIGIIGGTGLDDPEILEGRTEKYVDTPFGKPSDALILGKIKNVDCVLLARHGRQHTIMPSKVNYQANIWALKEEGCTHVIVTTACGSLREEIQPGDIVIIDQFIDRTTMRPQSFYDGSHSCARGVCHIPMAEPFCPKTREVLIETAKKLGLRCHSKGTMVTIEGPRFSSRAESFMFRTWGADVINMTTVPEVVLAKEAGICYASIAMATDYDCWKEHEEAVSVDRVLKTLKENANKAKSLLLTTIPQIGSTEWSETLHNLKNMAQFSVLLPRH
From the text: as §1

[5] = molecular target: T4, Aminodeoxyfutalosine nucleosidase (Helicobacter pylori (strain ATCC 700392 / 26695), UniProt O24915)
T4 sequence (O24915 whole entry): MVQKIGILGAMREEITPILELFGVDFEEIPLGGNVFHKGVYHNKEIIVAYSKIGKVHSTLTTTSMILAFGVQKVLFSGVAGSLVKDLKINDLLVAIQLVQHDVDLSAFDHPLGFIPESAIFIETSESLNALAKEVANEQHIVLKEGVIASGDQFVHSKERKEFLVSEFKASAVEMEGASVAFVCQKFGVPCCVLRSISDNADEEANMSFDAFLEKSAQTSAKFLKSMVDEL
From the text: as §1

[6] = molecular target: 5'-methylthioadenosine/S-adenosylhomocysteine nucleosidase (Klebsiella pneumoniae (strain 342), UniProt B5Y1L0)
From the text: as §1

[7] = molecular target: T5, 5'-methylthioadenosine/S-adenosylhomocysteine nucleosidase (Neisseria meningitidis (strain alpha14), UniProt C6S634)
T5 sequence (C6S634 whole entry): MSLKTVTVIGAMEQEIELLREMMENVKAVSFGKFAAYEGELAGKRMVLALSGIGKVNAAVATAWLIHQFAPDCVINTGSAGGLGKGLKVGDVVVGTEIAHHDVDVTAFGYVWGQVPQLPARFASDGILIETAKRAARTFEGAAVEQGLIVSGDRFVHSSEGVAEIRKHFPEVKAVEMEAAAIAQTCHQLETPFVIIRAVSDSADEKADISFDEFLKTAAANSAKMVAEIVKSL
From the text: as §1

5'-methylthioadenosine/S-adenosylhomocysteine nucleosidase (Escherichia coli (strain K12), UniProt P0AF12), sequence (P0AF12 whole entry): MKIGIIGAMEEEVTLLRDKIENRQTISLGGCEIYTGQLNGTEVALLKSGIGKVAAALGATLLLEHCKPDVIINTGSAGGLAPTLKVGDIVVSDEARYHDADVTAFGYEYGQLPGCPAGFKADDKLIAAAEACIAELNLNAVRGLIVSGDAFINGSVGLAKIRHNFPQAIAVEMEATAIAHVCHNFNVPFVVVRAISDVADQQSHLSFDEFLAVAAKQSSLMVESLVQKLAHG
5'-methylthioadenosine/S-adenosylhomocysteine nucleosidase (Klebsiella pneumoniae (strain 342), UniProt B5Y1L0), sequence (B5Y1L0 whole entry): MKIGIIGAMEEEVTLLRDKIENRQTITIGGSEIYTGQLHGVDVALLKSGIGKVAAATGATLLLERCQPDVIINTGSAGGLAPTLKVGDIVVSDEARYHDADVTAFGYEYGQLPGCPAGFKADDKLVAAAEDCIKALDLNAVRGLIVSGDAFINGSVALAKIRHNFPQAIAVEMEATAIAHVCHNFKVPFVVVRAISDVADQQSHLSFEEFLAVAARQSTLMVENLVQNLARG

Structure (SMILES) | pKd [1] | pKd [2] | pKd [3] | pKd [4] | pKd [5] | pKd [6] | pKd [7]
Nc1ncnc2c(C3NC(CSCc4ccccc4)C(O)C3O)c[nH]c12 (stereo unspecified) | 10.57 | 7.92 | 6.68 | 7.59 | 6.70 | 7.89 | 9.77
CCSC[C@H]1CN(Cc2c[nH]c3c(N)ncnc23)C[C@@H]1O [DADMe-ImmA-Et] |  | 8.89 | 8.00 |  | 9.29 | 8.66 | 10.34
CSCC1NC(c2c[nH]c3c(N)ncnc23)C(O)C1O (stereo unspecified) [2-(4-Amino-5H-pyrrolo[3,2-d]pyrimidin-7-yl)-3,4-dihydroxy-5-methylsulfanylmethyl-pyrrolidinium] | 10.11 | 7.11 | 6.00 | 9.00 | 8.92 | 7.35 | 9.44
CCSCC1NC(c2c[nH]c3c(N)ncnc23)C(O)C1O (stereo unspecified) | 10.92 | 7.92 | 7.40 | 9.58 | 8.47 | 7.89 | 9.92
Nc1ncnc2c(C3NC(CSc4ccc(Cl)cc4)C(O)C3O)c[nH]c12 (stereo unspecified) | 11.70 | 7.28 | 6.72 | 9.78 | 7.40 | 8.39 | 10.20
Nc1ncnc2c(CN3CC(O)C(CSCc4ccccc4)C3)c[nH]c12 (stereo unspecified) |  | 9.08 | 8.62 | 9.15 | 6.70 | 8.72 | 10.62
Nc1ncnc2c(CN3CC(O)C(CSc4ccc(Cl)cc4)C3)c[nH]c12 (stereo unspecified) [DADMe-ImmA-p-ClPh] |  | 8.10 | 9.44 | 11.00 | 9.24 | 9.30 | 10.68
CSC[C@H]1CN(Cc2c[nH]c3c(N)ncnc23)C[C@@H]1O [DADMe-ImmA-Me] |  | 8.85 | 7.62 | 10.07 and 10.47 | 9.24 | 9.11 | 9.85
